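Dose response: 5 concentrations. Exposure: 48 h. Format: 96-well plates. Endpoint: linear interpolation; highest concentration if not reached. GI50 = concentration required for 50% inhibition of growth.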 Calls of active or inactive are those of the source. Rule as the data show it: active = GI50 up to about 1.1 µM and inactive = higher.
Columns and labels:
Experiment in all cases: NCI tumour cell line growth inhibition, 48 h
[1] = system: HL-60
[2] = system: HCT-116
[3] = system: UO-31
[4] = system: ACHN
[5] = system: OVCAR-3
[6] = system: NCI-H226
[7] = system: OVCAR-5
[8] = system: HT-29
[9] = system: SK-MEL-2
[10] = system: OVCAR-8
[11] = system: CAKI-1
[12] = system: Malme-3M
[13] = system: SK-OV-3
[14] = system: COLO 205
[15] = system: NCI-H522
[16] = system: U-251
[17] = system: SF-268
[18] = system: SNB-19
[19] = system: HOP-62
[20] = system: HCC 2998

SMILES | GI50 [1] | GI50 [2] | GI50 [3] | GI50 [4] | GI50 [5] | GI50 [6] | GI50 [7] | GI50 [8] | GI50 [9] | GI50 [10] | GI50 [11] | GI50 [12] | GI50 [13] | GI50 [14] | GI50 [15] | GI50 [16] | GI50 [17] | GI50 [18] | GI50 [19] | GI50 [20]
CC1(C)C2CCC3(OCCO3)C1C1OC12 (stereo not drawn) | > 100 µM (inactive) | > 100 µM (inactive) | > 100 µM (inactive) | > 100 µM (inactive) | > 100 µM (inactive) | > 100 µM (inactive) | > 100 µM (inactive) | > 100 µM (inactive) | > 100 µM (inactive) | > 100 µM (inactive) | 44.3 µM (inactive) | > 100 µM (inactive) | > 100 µM (inactive) | > 100 µM (inactive) | > 100 µM (inactive) | > 100 µM (inactive) | > 100 µM (inactive) | 30 µM (inactive) |  | 
COc1ccc(CCC2NCCc3cc(OC)c(OC)cc32)cc1 (stereo not drawn) |  | > 100 µM (inactive) | 88.1 µM (inactive) | > 100 µM (inactive) | > 100 µM (inactive) |  | > 100 µM (inactive) | > 100 µM (inactive) | > 100 µM (inactive) | > 100 µM (inactive) | > 100 µM (inactive) | > 100 µM (inactive) |  |  | > 100 µM (inactive) | > 100 µM (inactive) | > 100 µM (inactive) | > 100 µM (inactive) | > 100 µM (inactive) | > 100 µM (inactive)
CCOC(=O)c1nc2ccc(C(F)(F)F)cc2nc1NCc1ccc(Cl)c(Cl)c1 | 41.5 µM (inactive) | 27 µM (inactive) | 45 µM (inactive) | 22.5 µM (inactive) | 23.3 µM (inactive) | 30.8 µM (inactive) | > 100 µM (inactive) | 29.1 µM (inactive) | 63.8 µM (inactive) | 37.1 µM (inactive) | 24.9 µM (inactive) | 21.8 µM (inactive) | 35.2 µM (inactive) | 31.8 µM (inactive) | 11.4 µM (inactive) | 58.6 µM (inactive) | 39.9 µM (inactive) | 28.3 µM (inactive) | 21.1 µM (inactive) | 
Cc1ccc(NC(=O)/C(=N\Nc2ccc([N+](=O)[O-])cc2[N+](=O)[O-])C2C(=O)NC(=O)NC2=O)cc1 | 35.7 µM (inactive) | 62.4 µM (inactive) | 15.5 µM (inactive) | 23.3 µM (inactive) | > 100 µM (inactive) | > 100 µM (inactive) | > 100 µM (inactive) | 49.5 µM (inactive) |  | 55.7 µM (inactive) | > 100 µM (inactive) | > 100 µM (inactive) | > 100 µM (inactive) | > 100 µM (inactive) | > 100 µM (inactive) | 38.6 µM (inactive) | 32 µM (inactive) | > 100 µM (inactive) | 27.5 µM (inactive) | 
O=C1c2ccccc2C(=O)c2cc(/N=N/c3c(O)ccc4ccccc34)ccc21 |  | > 100 µM (inactive) | > 100 µM (inactive) | > 100 µM (inactive) | > 100 µM (inactive) | > 100 µM (inactive) | > 100 µM (inactive) | > 100 µM (inactive) | > 100 µM (inactive) | > 100 µM (inactive) | > 100 µM (inactive) | > 100 µM (inactive) | > 100 µM (inactive) | > 100 µM (inactive) | > 100 µM (inactive) | 56.4 µM (inactive) | 30.1 µM (inactive) | > 100 µM (inactive) | 30.2 µM (inactive) | 
O=C1c2sc(-c3ccc(F)cc3)cc2-n2cccc21 |  | 18.4 µM (inactive) | 22.5 µM (inactive) | 29.9 µM (inactive) | 32.8 µM (inactive) | 24.4 µM (inactive) | > 100 µM (inactive) | 25.2 µM (inactive) | > 100 µM (inactive) | 27.6 µM (inactive) | 17.1 µM (inactive) | 77.3 µM (inactive) | 28.2 µM (inactive) | 48 µM (inactive) | 34.8 µM (inactive) | 16.4 µM (inactive) | 19.9 µM (inactive) | 16.7 µM (inactive) | 17 µM (inactive) | 29.2 µM (inactive)
O=C1/C(=C/c2ccccc2)CN(C(=O)C(Cl)(Cl)Cl)C/C1=C\c1ccccc1 | 0.159 µM (active) | 0.356 µM (active) | 2.59 µM (inactive) | 2.01 µM (inactive) | 2.86 µM (inactive) |  | 2.51 µM (inactive) | 1.23 µM (inactive) | 2.91 µM (inactive) | 1.73 µM (inactive) |  | 2.11 µM (inactive) |  | 2.25 µM (inactive) | 2.13 µM (inactive) | 1.64 µM (inactive) | 3.33 µM (inactive) | 2.82 µM (inactive) | > 10 µM (inactive) | 
Cc1c2c(n(CCN(C)C)c1C)NN=C(C#N)S2(=O)=O |  | > 100 µM (inactive) | > 100 µM (inactive) | > 100 µM (inactive) | > 100 µM (inactive) | > 100 µM (inactive) | > 100 µM (inactive) | > 100 µM (inactive) | > 100 µM (inactive) | > 100 µM (inactive) |  | > 100 µM (inactive) | > 100 µM (inactive) | > 100 µM (inactive) |  | > 100 µM (inactive) | > 100 µM (inactive) | > 100 µM (inactive) | > 100 µM (inactive) | > 100 µM (inactive)
O=C(c1cccs1)N(C(=S)N1CCN(c2ccccc2)CC1)c1ccccc1 | > 100 µM (inactive) | > 100 µM (inactive) | > 100 µM (inactive) | > 100 µM (inactive) | > 100 µM (inactive) | 47.6 µM (inactive) | > 100 µM (inactive) | > 100 µM (inactive) | > 100 µM (inactive) | > 100 µM (inactive) | > 100 µM (inactive) | > 100 µM (inactive) | > 100 µM (inactive) | > 100 µM (inactive) | > 100 µM (inactive) | > 100 µM (inactive) | > 100 µM (inactive) | > 100 µM (inactive) | > 100 µM (inactive) | 
CC1(C)OCC[C@@H]1[Si](C)(C)C |  | 92.7 µM (inactive) | 42.9 µM (inactive) | 27.5 µM (inactive) | 71.9 µM (inactive) | 70.1 µM (inactive) | > 100 µM (inactive) | > 100 µM (inactive) | > 100 µM (inactive) | > 100 µM (inactive) |  | > 100 µM (inactive) | > 100 µM (inactive) | > 100 µM (inactive) | 15.3 µM (inactive) | > 100 µM (inactive) | 36.2 µM (inactive) | > 100 µM (inactive) |  | 
O=c1[nH]c2cc(C(F)(F)F)ccc2nc1C(F)(F)F |  | 27.5 µM (inactive) | 30.4 µM (inactive) | 37.3 µM (inactive) | 18.5 µM (inactive) | 28.6 µM (inactive) | 36.9 µM (inactive) | 36.4 µM (inactive) | 33.7 µM (inactive) | 36 µM (inactive) | 30.3 µM (inactive) | 35.2 µM (inactive) | 30.4 µM (inactive) | 30.9 µM (inactive) | 29.4 µM (inactive) | 42 µM (inactive) | 40.4 µM (inactive) | 35.6 µM (inactive) | 18.2 µM (inactive) | 49.7 µM (inactive)
COc1cccc(-c2[nH]c3cc4c(cc3c(=O)c2C(=O)O)OCO4)c1 |  | 32.8 µM (inactive) | 49.2 µM (inactive) | 86.7 µM (inactive) | 44.4 µM (inactive) | 43.5 µM (inactive) | > 100 µM (inactive) | 34.2 µM (inactive) | 78.7 µM (inactive) | 23.2 µM (inactive) | 72.8 µM (inactive) |  |  | 26.5 µM (inactive) |  | 37.2 µM (inactive) |  | 43.4 µM (inactive) | 62.8 µM (inactive) | 32.8 µM (inactive)
COC1CC(=O)C2C(=O)N(c3ccccc3)C(=O)C23C(C(=O)c2ccccc2)=C(C)NC13O (stereo not drawn) |  | 9.2 µM (inactive) | 11.4 µM (inactive) | 12.9 µM (inactive) | 2.12 µM (inactive) |  | 18.9 µM (inactive) | 16.9 µM (inactive) | 17.1 µM (inactive) | 21.1 µM (inactive) | 4.6 µM (inactive) | 1.43 µM (inactive) | 19.9 µM (inactive) | 12.3 µM (inactive) | 1.91 µM (inactive) | 17.3 µM (inactive) | 3.84 µM (inactive) | 21.4 µM (inactive) | 20.2 µM (inactive) | 
Cc1ccc([N+](=O)[O-])cc1S(=O)(=O)Nc1ccc(C2=NN(c3ccc([N+](=O)[O-])cc3[N+](=O)[O-])C(c3ccccc3)C2)cc1 (stereo not drawn) | 20.3 µM (inactive) | 13 µM (inactive) | 14.8 µM (inactive) | 17.6 µM (inactive) | 14.2 µM (inactive) | 17.4 µM (inactive) | 23.7 µM (inactive) | 16.1 µM (inactive) | 13.6 µM (inactive) | 17 µM (inactive) | 22.8 µM (inactive) | 17.9 µM (inactive) | 21 µM (inactive) | 19.2 µM (inactive) | 10.1 µM (inactive) | 12.7 µM (inactive) | 13.1 µM (inactive) | 17.1 µM (inactive) | 15.5 µM (inactive) | 
O=C1OC(c2ccc(O)cc2)(c2ccc(O)cc2)c2ccc(Cl)c3cccc1c23.O=C1OC(c2ccc(O)cc2)(c2ccc(O)cc2)c2cccc3c(Cl)ccc1c23 |  | 9.46 µM (inactive) | 23 µM (inactive) | 13.9 µM (inactive) | 11.5 µM (inactive) | 12.9 µM (inactive) | 9.84 µM (inactive) | 12.2 µM (inactive) | 12.6 µM (inactive) | 14.4 µM (inactive) | 8.51 µM (inactive) | 9.55 µM (inactive) | 19.2 µM (inactive) | 1.03 µM (active) |  | 11.9 µM (inactive) | 15.9 µM (inactive) | 23.1 µM (inactive) | 3.94 µM (inactive) | 
